The assay has as its target human P2X3 receptor (Homo sapiens (Human), UniProt P56373). Put plainly: P2X3 receptor inhibition, ATP-evoked Fluo-3 fluorescence (FDSS 3000). To be noted: C6BU-1 cell transfected with human P2X3 receptor gene. It counts as cell-based.
human P2X3 receptor, sequence (P56373 whole entry): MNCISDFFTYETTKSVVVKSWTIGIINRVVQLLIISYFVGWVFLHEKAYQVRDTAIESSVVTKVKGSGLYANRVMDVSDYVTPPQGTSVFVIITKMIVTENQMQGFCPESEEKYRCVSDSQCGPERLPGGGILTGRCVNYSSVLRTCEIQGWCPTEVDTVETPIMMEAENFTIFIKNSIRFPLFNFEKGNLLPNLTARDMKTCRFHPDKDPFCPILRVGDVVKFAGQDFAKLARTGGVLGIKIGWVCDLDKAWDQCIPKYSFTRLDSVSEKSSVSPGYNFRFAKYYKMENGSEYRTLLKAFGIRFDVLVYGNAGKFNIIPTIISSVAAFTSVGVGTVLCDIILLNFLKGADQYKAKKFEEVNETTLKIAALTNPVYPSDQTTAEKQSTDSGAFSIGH
Molecule `CC(C)Oc1ccc(/N=c2\[nH]c(=O)n(CC3(C(=O)O)CC3)c(=O)n2Cc2ccc(Cl)cc2)cc1Cl` [I-425] registered a 50% inhibitory concentration (IC50) of 0.016 µM.
The molecule `CC(C)n1c(=O)nc(Nc2ccc3[nH]c(=O)oc3c2)n(Cc2ccc(Cl)cc2)c1=O` [I-246] yielded an IC50 of 0.996 µM.
Turning to `CC(C)n1c(=O)nc(Nc2ccc(OC3CCOCC3)c(Cl)c2)n(Cc2ccc(Cl)cc2)c1=O` [I-239], half-maximal inhibition (IC50) required 0.116 µM.
Then `CC(C)Oc1ccc(Nc2nc(=O)n(CCC(=O)NCCO)c(=O)n2Cc2ccc(Cl)cc2)cc1F` [I-352], with 0.036 µM; and `COC(=O)C[C@H](C)n1c(=O)[nH]/c(=N\c2ccc(OC(C)C)c(Cl)c2)n(Cc2ccc(Cl)cc2)c1=O` [I-522], with 0.029 µM.
Take `Cc1ccc(Cn2c(Nc3ccc(OC(C)C)cc3)nc(=O)n(C(C)C)c2=O)cc1[N+](=O)[O-]` [I-218]: half-maximal inhibition (IC50) required 0.505 µM.
Then `CCOc1ccc(/N=c2\[nH]c(=O)n(C[C@@H](C)C(=O)OC)c(=O)n2Cc2ccc(Cl)cc2)cc1` [I-480], with 0.012 µM; and `CC(C)Oc1ccc(Nc2nc(=O)n(CC(=O)N(C)C)c(=O)n2Cc2ccc(Cl)cc2)cc1F` [I-293], with 0.351 µM; and `Cc1ccc(Cn2c(=O)n(CC(=O)N[C@H](C)C(=O)O)c(=O)[nH]/c2=N\c2ccc(OC(C)C)c(F)c2)cc1` [I-417], with 0.035 µM.
Then `CCCCc1ccc(Nc2nc(=O)n(CCO)c(=O)n2Cc2ccc(Cl)cc2)cc1` [I-344], with 0.128 µM; and `CCn1c(=O)nc(Nc2cccc(C(F)(F)F)c2)n(Cc2ccc(F)cc2)c1=O` [I-138], with 0.619 µM; and `COC(=O)C[C@@H](C)n1c(=O)[nH]/c(=N\c2ccc(OC(C)C)c(F)c2)n(Cc2ccc(Cl)cc2)c1=O` [I-560], with 0.007 µM.
`CC(C)Oc1ccc(Nc2nc(=O)n(CCN3C(=O)CNC3=O)c(=O)n2Cc2ccc(Cl)cc2)cc1F` [I-391] had a 50% inhibitory concentration (IC50) of 0.133 µM.
`CCOc1ccc(/N=c2\[nH]c(=O)n(C[C@@H](C)C(=O)O)c(=O)n2Cc2ccc(Cl)cc2)cc1` [I-484] came in with an IC50 of 0.29 µM.
`CC(C)COc1ccc(Nc2nc(=O)n(CCO)c(=O)n2Cc2ccc(Cl)cc2)cc1F` [I-323] came in with an IC50 of 0.148 µM.
Then `CCOc1ccc(/N=c2\[nH]c(=O)n(C[C@@H](C)C(=O)O)c(=O)n2Cc2ccc(Cl)cc2)cc1Cl` [I-487], with 0.027 µM; and `CNC(=O)Cn1c(=O)[nH]/c(=N\c2ccc(OC(C)C)c(Cl)c2)n(Cc2ccc(Cl)cc2)c1=O` [I-436], with 0.008 µM.
As for `COC(=O)c1ccc(Nc2nc(=O)n(C(C)C)c(=O)n2Cc2ccc(F)cc2)cc1Cl` [I-238], the 50% inhibitory concentration (IC50) came out at 0.658 µM.
In turn, `CC(C)Oc1ccc(/N=c2\[nH]c(=O)n(CC(=O)NCC(=O)O)c(=O)n2Cc2ccc(Cl)cc2)cc1F` [I-400] yielded a concentration for half-maximal inhibition (IC50) of 0.044 µM.
For the molecule `COC(=O)C(C)(C)Cn1c(=O)[nH]/c(=N\c2ccc3c(ccn3CC(C)C)c2)n(Cc2ccc(Cl)cc2)c1=O` [I-506], the IC50 was 0.279 µM.
The molecule `CCOC(=O)CCCn1c(=O)[nH]/c(=N\c2ccc3oc(C)cc3c2)n(Cc2ccc(Cl)cc2)c1=O` [I-504] had an IC50 of 0.015 µM.
With `COC(=O)C(C)(C)Cn1c(=O)[nH]/c(=N\c2ccc3c(ccn3C)c2)n(Cc2ccc(Cl)cc2)c1=O` [I-427], the IC50 amounted to 0.678 µM.
Consider `CCOC(=O)C1(Cn2c(=O)[nH]/c(=N\c3ccc(OC(C)C)c(F)c3)n(Cc3ccc(Cl)cc3)c2=O)CC1` [I-422], for which inhibition was half-maximal at 0.006 µM (IC50).
`CC(C)Oc1ccc(Nc2nc(=O)n(C(C)C)c(=O)n2Cc2ccc(Cl)cc2)cc1C#N` [I-245] displayed a half-maximal inhibitory concentration (IC50) of 0.168 µM.
For `CC(C)(Cn1c(=O)[nH]/c(=N\c2ccc(O)c(Cl)c2)n(Cc2ccc(Cl)cc2)c1=O)C(=O)O` [I-429], half-maximal inhibition (IC50) was put at 0.779 µM.
The value for `Cc1ccc(Cn2c(=O)n(CCCC(=O)O)c(=O)[nH]/c2=N\c2ccc(OC(C)C)c(Cl)c2)cc1` [I-519] was 0.012 µM; that for `O=c1nc(Nc2ccc(OC3CCCC3)c(Cl)c2)n(Cc2ccc(Cl)cc2)c(=O)n1CCO` [I-374] was 0.08 µM.
Turning to `COC(=O)[C@@H](C)Cn1c(=O)nc(Nc2ccc(OC(C)C)c(C)c2)n(Cc2ccc(Cl)cc2)c1=O` [I-531], the 50% inhibitory concentration (IC50) was 0.01 µM.
Regarding `COC(=O)C[C@@H](C)n1c(=O)[nH]/c(=N\c2ccc(OC(C)C)c(Cl)c2)n(Cc2ccc(Cl)cc2)c1=O` [I-556], it took 0.005 µM to reach half-maximal inhibition (IC50).
The molecule `CC(C)Oc1ccc(Nc2nc(=O)n(CC3(CO)CC3)c(=O)n2Cc2ccc(Cl)cc2)cc1F` [I-335] displayed a half-maximal inhibitory concentration (IC50) of 0.007 µM.
Then `O=c1nc(Nc2ccc(Oc3ccccc3)cc2)n(Cc2ccc(Cl)cc2)c(=O)n1CCO` [I-334], with 0.099 µM; and `COC(=O)[C@@H](C)Cn1c(=O)[nH]/c(=N\c2ccc3oc(C)cc3c2)n(Cc2ccc(Cl)cc2)c1=O` [I-534], with 0.018 µM; and `CC(C)Oc1ccc(/N=c2\[nH]c(=O)n(CCC(=O)NCC(N)=O)c(=O)n2Cc2ccc(Cl)cc2)cc1F` [I-440], with 0.055 µM.
For `CCOC(=O)CCn1c(=O)nc(Nc2ccc(OC(C)C)c(F)c2)n(Cc2ccc(Cl)cc2)c1=O` [I-356], half-maximal inhibition (IC50) was put at 0.012 µM.
On to `CCOC(=O)CCCn1c(=O)[nH]/c(=N\c2ccc(OC(C)C)c(C)c2)n(Cc2ccc(Cl)cc2)c1=O` [I-502], for which the IC50 is 0.02 µM.
`Cc1ccc(Cn2c(Nc3cccc(Cl)c3)nc(=O)n(C(C)C)c2=O)cc1` [I-117] displayed an IC50 of 0.387 µM.
The value for `COC(=O)Cn1c(=O)nc(Nc2ccc(OC(C)C)c(F)c2)n(Cc2ccc(Cl)cc2)c1=O` [I-338] was 0.053 µM; that for `Cc1ccc(Cn2c(=O)n(CC(=O)NCC(=O)O)c(=O)[nH]/c2=N\c2ccc(OC(C)C)c(F)c2)cc1` [I-416] was 0.035 µM.
In the case of `CC(C)Oc1ccc(Nc2nc(=O)n(CC(CO)CO)c(=O)n2Cc2ccc(Cl)cc2)cc1` [I-368], the IC50 amounted to 0.041 µM.
The value for `CC(C)Oc1ccc(/N=c2\[nH]c(=O)n(Cc3ccc(C(=O)O)cc3)c(=O)n2Cc2ccc(Cl)cc2)cc1F` [I-445] was 0.008 µM.
For `CCOc1ccc(Nc2nc(=O)n(CC(CO)CO)c(=O)n2Cc2ccc(Cl)cc2)cc1` [I-371], the 50% inhibitory concentration (IC50) was 0.063 µM.
`CCn1ccc2cc(/N=c3\[nH]c(=O)n(CC(C)(C)C(=O)OC)c(=O)n3Cc3ccc(Cl)cc3)ccc21` [I-492] showed a half-maximal inhibitory concentration (IC50) of 0.102 µM.
The value for `Cc1ccc(Cn2c(=O)n(CCCC(=O)O)c(=O)[nH]/c2=N\c2ccc(OC(C)C)c(C)c2)cc1` [I-525] was 0.054 µM.
`CC(C)(Cn1c(=O)[nH]/c(=N\c2cccc(OC(F)(F)F)c2)n(Cc2ccc(Cl)cc2)c1=O)C(=O)O` [I-469] came in with a half-inhibitory concentration (IC50) of 0.101 µM.
On to `CC(Nc1nc(=O)n(C(C)C)c(=O)n1Cc1ccc(F)cc1)c1ccc(Cl)cc1` (stereo not shown) [I-223], for which the midpoint of inhibition, the IC50, lay at 0.909 µM.
For `COC(=O)C(C)(C)Cn1c(=O)[nH]/c(=N\c2ccc(OC)c(C)c2)n(Cc2ccc(Cl)cc2)c1=O` [I-442], the 50% inhibitory concentration (IC50) was determined as 0.117 µM.
The value for `CC(C)Oc1ccc(/N=c2\[nH]c(=O)n(CC(C)(C)C(=O)O)c(=O)n2CC2CCCC2)cc1Cl` [I-554] was 0.139 µM; that for `Cc1cc(/N=c2\[nH]c(=O)n([C@H](C)CC(=O)O)c(=O)n2Cc2ccc(Cl)cc2)ccc1OC(C)C` [I-563] was 0.04 µM; that for `CC(C)Oc1ccc(/N=c2\[nH]c(=O)n(CC(=O)NC(CO)CO)c(=O)n2Cc2ccc(Cl)cc2)cc1F` [I-398] was 0.007 µM.
Turning to `CCC[S+]([O-])c1ccc(Nc2nc(=O)n(CCO)c(=O)n2Cc2ccc(Cl)cc2)cc1` (stereo not shown) [I-385], the concentration for half-maximal inhibition (IC50) was determined as 0.908 µM.
On to `CC(C)Oc1ccc(Nc2nc(=O)n(C(C)C)c(=O)n2Cc2ccc(F)cc2)cc1Cl` [I-203], for which the 50% inhibitory concentration (IC50) was 0.11 µM.
The molecule `Cc1ccc(Cn2c(=O)n(CCCC(=O)O)c(=O)[nH]/c2=N\c2ccc3oc(C)cc3c2)cc1` [I-520] yielded an IC50 of 0.08 µM.
`CC(C)Oc1ccc(Nc2nc(=O)n(CC(F)(F)C(=O)O)c(=O)n2Cc2ccc(Cl)cc2)cc1F` [I-283] came in with an IC50 of 0.019 µM.
The molecule `CC(C)CNC(=O)c1ccc(Nc2nc(=O)n(C(C)C)c(=O)n2Cc2ccc(Cl)cc2)cc1` [I-256] displayed an IC50 of 0.867 µM.
`C=CCn1c(=O)nc(Nc2ccc(OC(C)C)c(F)c2)n(Cc2ccc(Cl)cc2)c1=O` [I-346] showed a 50% inhibitory concentration (IC50) of 0.016 µM.
With `COC(=O)[C@H](C)Cn1c(=O)[nH]/c(=N\c2ccc3oc(C)cc3c2)n(Cc2ccc(Cl)cc2)c1=O` [I-558], it took 0.005 µM to reach half-maximal inhibition (IC50).
In turn, `Cc1ccc(Cn2c(=O)n(CC(=O)NC(C)(C)C(=O)O)c(=O)[nH]/c2=N\c2ccc(OC(C)C)c(F)c2)cc1` [I-415] registered an IC50 of 0.314 µM.
In turn, `COC(=O)C(C)(C)Cn1c(=O)[nH]/c(=N\c2ccc(OC(C)C)c(F)c2)n(Cc2ccc(C)cc2)c1=O` [I-404] yielded an IC50 of 0.012 µM.
For `CCOc1ccc(/N=c2\[nH]c(=O)n(CC(C)(C)C(=O)O)c(=O)n2Cc2ccc(Cl)cc2)cc1C` [I-465], the IC50 turned out to be 0.057 µM.
Molecule `CC(C)Oc1ccc(/N=c2\[nH]c(=O)n(C[C@@H](C)C(=O)O)c(=O)n2Cc2ccc(Cl)cc2)cc1F` [I-455] came in with a concentration for half-maximal inhibition (IC50) of 0.03 µM.
`CC(C)Oc1ccc(Nc2nc(=O)n(CCN3CCOCC3)c(=O)n2Cc2ccc(Cl)cc2)cc1F` [I-281]: half-maximal inhibition (IC50) required 0.012 µM.
`CCNC(=O)NCCn1c(=O)nc(Nc2ccc(OC(C)C)c(F)c2)n(Cc2ccc(Cl)cc2)c1=O` [I-389]: the midpoint of inhibition, the IC50, lay at 0.064 µM.
Turning to `CC(C)Oc1ccc(Nc2nc(=O)n(CCNC(=O)NCCO)c(=O)n2Cc2ccc(Cl)cc2)cc1F` [I-390], the IC50 came out at 0.067 µM.
Then `O=c1nc(Nc2ccc(OC3CCOCC3)cc2)n(Cc2ccc(Cl)cc2)c(=O)n1CCO` [I-324], with 0.309 µM.
Then `Cc1cc2cc(/N=c3\[nH]c(=O)n(C[C@@H](C)C(=O)O)c(=O)n3Cc3ccc(Cl)cc3)ccc2o1` [I-564], with 0.048 µM; and `CCn1ccc2cc(/N=c3\[nH]c(=O)n(CC(C)(C)C(=O)O)c(=O)n3Cc3ccc(Cl)cc3)ccc21` [I-493], with 0.952 µM.
In the case of `CC(C)Oc1ccc(Nc2nc(=O)n(CC(C)(C)CN)c(=O)n2Cc2ccc(Cl)cc2)cc1F` [I-331], half-maximal inhibition (IC50) required 0.066 µM.
The molecule `CCOc1ccc(/N=c2\[nH]c(=O)n(CC(C)(C)C(=O)OC)c(=O)n2Cc2ccc(Cl)cc2)cc1C` [I-462] had a concentration for half-maximal inhibition (IC50) of 0.004 µM.
Molecule `CC(C)Oc1ccc(Nc2nc(=O)n(CC3CCOCC3)c(=O)n2Cc2ccc(Cl)cc2)cc1F` [I-275] gave an IC50 of 0.021 µM.
`CC(C)n1c(=O)nc(Nc2ccc(Oc3ccccc3)cc2)n(Cc2ccc(F)cc2)c1=O` [I-128] came in with an IC50 of 0.84 µM.

A word on the IC50: it is the point on the concentration scale where inhibition reaches its midpoint. Low readings indicate higher potency, high ones lower potency.

(Values after patent US9150546B2, “Triazine derivative and pharmaceutical composition comprising the same” (SHIONOGI & CO., LTD., priority 2009, dated 2015).)
